According to patent US20100040703A1, “USE OF NITRIC OXIDE” (priority 2008, published 2010):

System: Influenza A/Victoria/H3N2
Test: Plaque assay on MDCK cells after exposure of virions to 160 ppm NO gas
Type: cell-based
Conditions: for plaques (infectious virus titre): 160 ppm gNO

Substance: Nitric oxide [NO-gas]
- plaques (infectious virus titre) (exposure 0 mins): 250 ± 14 pfu/ml
- plaques (infectious virus titre) (exposure 60 mins): 50 ± 11 pfu/ml
- plaques (infectious virus titre) (exposure 120 mins): 43 ± 10 pfu/ml
- plaques (infectious virus titre) (exposure 180 mins): 29 ± 14 pfu/ml
- less transmissible into host cells than the control group (virions exposed to 160 ppm NO before incubation with host cells): at least 80%
